Experiment [1] in a line: Perm of hair with binding formulation or hydrogen peroxide, 40 wash and dry cycles. On the set-up: species or system human. The following applies: after 40 cycles of washing and drying with the same shampoo and conditioner; hair reduced with ammonium thioglycolate or dithiothreitol. The procedure:
Hair samples were obtained from a human subject and cut in ½ inch wide wefts.
Reducing agents: Ammonium thioglycolate (ATG) was obtained from a permanent wave kit manufactured by Zotos. 300 mg of Dithiothreitol in a 10 g solution was also used as the reducing agent.
Binding formulation: A bismaleate binding agent 2,2′-(ethane-1,2-diylbis(oxy))bis(ethan-1-amine) di-maleate at a concentration of 300 mg in 10 g total solution (water) was used.
The hair was washed with clarifying shampoo, towel dried, and then rolled around a perm rod. Ammonium thioglycolate or dithiothreitol was then applied to the hair and left on the hair for 10 minutes to 1 hour. The hair was then rinsed for 30 seconds to 1 minute and then blotted dry with a towel.
The binding formulation was applied to the hair, via a needle nose applicator, drenching the hair. The binding agent was left on the hair for a period of about 7.5 minutes. The hair was drenched for a second time with the binding formulation and left for a second 7.5 minutes, for a total of 15 minutes. The hair was then rinsed with water for about 1-2 minutes then unrolled from the perm rods. After the hair was removed from the perm rods, the hair was shampooed and conditioned with various salon shampoo and conditioner brands, including LiQWd® Hydrating Shampoo and Hydrating Conditioner. The washing and drying steps were repeated 40 times. […]

The nature of experiment [2]: Hair breakage after repeated perm, visual inspection. Also noted: species or system human. Particulars: perm procedure repeated three times over 48 hours. The procedure: Two hair samples were obtained. Both samples were treated with dithiothreitol or ammonium thioglycolate as described in Example 1. One of the hair samples was subsequently treated with the binding formulation, while the other was neutralized with hydrogen peroxide. The process was completed the same day for the hair treated with the binding formulation. The process was completed in three days with hydrogen peroxide (traditional perm).
The procedure was repeated three times for each hair sample over a 48 hour time period.

As to `OO` [hydrogen peroxide], in experiment [1], the “reduction in the overall curl” value was “only slight reduction in the overall curl”. The “hair breakage upon visual inspection” value in experiment [2] was “significant breakage”.

Source of the values: US20230201632A1, “METHODS FOR FIXING HAIR AND SKIN” (Olaplex, Inc., priority 2013, published 2023).
